Test results taken from patent US8921360B2, “Heterobicycle-substituted azolyl benzene fungicides” (priority 2009, dated 2014).

Experiments:
Type in all cases: in vivo
[1] = system: Erysiphe graminis f. sp. tritici; assay: Test A: wheat powdery mildew, preventive spray on wheat seedlings; details: Blumeria graminis, 192 h, wheat seedlings sprayed to run-off, inoculated next day, rated after 8 days, 100 = 100% disease control, 0 = no control, read-out: Percentage Disease Control Test A
Description: General protocol for preparing test suspensions for Tests A-G: the test compounds were first dissolved in acetone in an amount equal to 11% of the final volume and then suspended at the desired concentration (in ppm) in acetone and purified water (50/50 mix by volume) containing 250 ppm of the surfactant Trem® 014 (polyhydric alcohol esters). The resulting test suspensions were then used in Tests A-G. Spraying a 200 ppm test suspension to the point of run-off on the test plants was the equivalent of a rate of 800 g/ha. The test suspension was sprayed to the point of run-off on wheat seedlings. The following day the seedlings were inoculated with a spore dust of Erysiphe graminis f. sp. tritici, (the causal agent of wheat powdery mildew) and incubated in a growth chamber at 20° C. for 8 days, after which time disease ratings were visually made. Results for Tests A-G are given in Table A. In the Table, a rating of 100 indicates 100% disease control and a rating of 0 indicates no disease control (relative to the controls). A dash (-) indicates no test results. All results are for 200 ppm except where followed by an “*”, which indicates 40 ppm.

[2] = system: Puccinia recondita f sp. tritici; assay: Test B: wheat leaf rust, preventive spray on wheat seedlings; details: Puccinia recondita, 192 h, wheat seedlings sprayed to run-off, inoculated next day, rated after 24 h + 7 days, read-out: Percentage Disease Control Test B
Description: General protocol for preparing test suspensions for Tests A-G: the test compounds were first dissolved in acetone in an amount equal to 11% of the final volume and then suspended at the desired concentration (in ppm) in acetone and purified water (50/50 mix by volume) containing 250 ppm of the surfactant Trem® 014 (polyhydric alcohol esters). The resulting test suspensions were then used in Tests A-G. Spraying a 200 ppm test suspension to the point of run-off on the test plants was the equivalent of a rate of 800 g/ha. The test suspension was sprayed to the point of run-off on wheat seedlings. The following day the seedlings were inoculated with a spore suspension of Puccinia recondita f sp. tritici (the causal agent of wheat leaf rust) and incubated in a saturated atmosphere at 20° C. for 24 h, and then moved to a growth chamber at 20° C. for 7 days, after which time disease ratings were visually made. Results for Tests A-G are given in Table A. In the Table, a rating of 100 indicates 100% disease control and a rating of 0 indicates no disease control (relative to the controls). A dash (-) indicates no test results. All results are for 200 ppm except where followed by an “*”, which indicates 40 ppm.

[3] = system: Puccinia recondita f. sp. tritici; assay: Test C: wheat leaf rust, spray the day after inoculation of wheat seedlings; details: Puccinia recondita, 120 h, wheat seedlings inoculated, sprayed the following day, rated after 5 days, read-out: Percentage Disease Control Test C;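 note: Curative spray on infected wheat seedlings with visual rating 5 days later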
Description: General protocol for preparing test suspensions for Tests A-G: the test compounds were first dissolved in acetone in an amount equal to 11% of the final volume and then suspended at the desired concentration (in ppm) in acetone and purified water (50/50 mix by volume) containing 250 ppm of the surfactant Trem® 014 (polyhydric alcohol esters). The resulting test suspensions were then used in Tests A-G. Spraying a 200 ppm test suspension to the point of run-off on the test plants was the equivalent of a rate of 800 g/ha. Wheat seedlings were inoculated with a spore suspension of Puccinia recondita f. sp. tritici (the causal agent of wheat leaf rust) and incubated in a saturated atmosphere at 20° C. for 24 h. The following day, the test suspension was sprayed to the point of run-off on the wheat seedlings and then moved to a growth chamber at 20° C. for 5 days, after which time disease ratings were visually made. Results for Tests A-G are given in Table A. In the Table, a rating of 100 indicates 100% disease control and a rating of 0 indicates no disease control (relative to the controls). A dash (-) indicates no test results. All results are for 200 ppm except where followed by an “*”, which indicates 40 ppm.

Septoria nodorum = assay: Test D: wheat glume blotch, preventive spray on wheat seedlings; details: Parastagonospora nodorum, 216 h, wheat seedlings sprayed to run-off, inoculated next day, rated after 48 h + 7 days, read-out: Percentage Disease Control Test D
Description: General protocol for preparing test suspensions for Tests A-G: the test compounds were first dissolved in acetone in an amount equal to 11% of the final volume and then suspended at the desired concentration (in ppm) in acetone and purified water (50/50 mix by volume) containing 250 ppm of the surfactant Trem® 014 (polyhydric alcohol esters). The resulting test suspensions were then used in Tests A-G. Spraying a 200 ppm test suspension to the point of run-off on the test plants was the equivalent of a rate of 800 g/ha. The test suspension was sprayed to the point of run-off on wheat seedlings. The following day the seedlings were inoculated with a spore suspension of Septoria nodorum (the causal agent of wheat glume blotch) and incubated in a saturated atmosphere at 20° C. for 48 h, and then moved to a growth chamber at 20° C. for 7 days, after which time disease ratings were visually made. Results for Tests A-G are given in Table A. In the Table, a rating of 100 indicates 100% disease control and a rating of 0 indicates no disease control (relative to the controls). A dash (-) indicates no test results. All results are for 200 ppm except where followed by an “*”, which indicates 40 ppm.

Septoria tritici = assay: Test E: wheat leaf blotch, preventive spray on wheat seedlings; details: Zymoseptoria tritici, 456 h, wheat seedlings sprayed to run-off, inoculated next day, rated after 48 h + 19 days, read-out: Percentage Disease Control Test E
Description: General protocol for preparing test suspensions for Tests A-G: the test compounds were first dissolved in acetone in an amount equal to 11% of the final volume and then suspended at the desired concentration (in ppm) in acetone and purified water (50/50 mix by volume) containing 250 ppm of the surfactant Trem® 014 (polyhydric alcohol esters). The resulting test suspensions were then used in Tests A-G. Spraying a 200 ppm test suspension to the point of run-off on the test plants was the equivalent of a rate of 800 g/ha. The test suspension was sprayed to the point of run-off on wheat seedlings. The following day the seedlings were inoculated with a spore suspension of Septoria tritici (the causal agent of wheat leaf blotch) and incubated in a saturated atmosphere at 24° C. for 48 h, and then moved to a growth chamber at 20° C. for 19 days, after which time disease ratings were visually made. Results for Tests A-G are given in Table A. In the Table, a rating of 100 indicates 100% disease control and a rating of 0 indicates no disease control (relative to the controls). A dash (-) indicates no test results. All results are for 200 ppm except where followed by an “*”, which indicates 40 ppm.

Structure (SMILES): COC(=O)NCc1cc(-c2ccn(-c3ccc4c(c3)C=C(C(=O)OC)CO4)n2)ccc1Cl [Compound 23, methyl 6-[3-[4-chloro-3-[[(methoxycarbonyl)amino]methyl]phenyl]-1H-pyrazol-1-yl]-2H-1-benzopyran-3-carboxylate]
- pest or weed control at 200 ppm [1]: 0%
- pest or weed control at 200 ppm [2]: 94%
- pest or weed control at 200 ppm [3]: 0%
- pest or weed control at 200 ppm (Septoria nodorum): 73%
- pest or weed control at 200 ppm (Septoria tritici): 0%

Structure (SMILES): CC(=O)NCc1cc(-c2ccn(-c3ccc4c(c3)CCCO4)n2)ccc1Cl [Compound 2, N-[[2-chloro-5-[1-(3,4-dihydro-2H-1-benzopyran-6-yl)-1H-pyrazol-3-yl]-phenyl]methyl]acetamide]
- pest or weed control at 200 ppm [1]: 84%
- pest or weed control at 200 ppm [2]: 100%
- pest or weed control at 200 ppm [3]: 88%
- pest or weed control at 200 ppm (Septoria nodorum): 100%
- pest or weed control at 40 ppm (Septoria tritici; 40 ppm (value followed by *)): 97%

Structure (SMILES): CNC(=O)NCc1cc(-c2ccn(-c3ccc4c(c3)CCCO4)n2)ccc1Cl [Compound 4, N-[[2-chloro-5-[1-(3,4-dihydro-2H-1-benzopyran-6-yl)-1H-pyrazol-3-yl]-phenyl]methyl]-N′-methylurea]
- pest or weed control at 200 ppm [1]: 0%
- pest or weed control at 200 ppm [2]: 97%
- pest or weed control at 200 ppm [3]: 53%
- pest or weed control at 200 ppm (Septoria nodorum): 82%
- pest or weed control at 200 ppm (Septoria tritici): 0%

Structure (SMILES): COC(=O)NCc1cc(-c2ccn(-c3ccc4c(c3)CC(O)CO4)n2)ccc1Cl (centres unmarked) [Compound 30, methyl N-[[2-chloro-5-[1-(3,4-dihydro-3-hydroxy-2H-1-benzopyran-6-yl)-1H-pyrazol-3-yl]phenyl]methyl]carbamate]
- pest or weed control at 200 ppm [1]: 98%
- pest or weed control at 200 ppm [2]: 100%
- pest or weed control at 200 ppm [3]: 9%
- pest or weed control at 200 ppm (Septoria nodorum): 99%
- pest or weed control at 200 ppm (Septoria tritici): 78%

Structure (SMILES): COC(=O)NCc1cc(-n2ccc(-c3ccc4c(c3)OCCO4)n2)ccc1Cl [Compound 7, methyl N-[[2-chloro-5-[3-(2,3-dihydro-1,4-benzodioxin-6-yl)-1H-pyrazol-1-yl]-phenyl]methyl]carbamate]
- pest or weed control at 200 ppm [1]: 100%
- pest or weed control at 200 ppm [2]: 100%
- pest or weed control at 200 ppm [3]: 100%
- pest or weed control at 200 ppm (Septoria nodorum): 100%
- pest or weed control at 200 ppm (Septoria tritici): 100%

Structure (SMILES): CC(=O)NCc1cc(-n2ccc(-c3ccc4c(c3)CCCO4)n2)ccc1Cl [Compound 8, N-[[2-chloro-5-[3-(3,4-dihydro-2H-1-benzopyran-6-yl)-1H-pyrazol-1-yl]phenyl]methyl]acetamide]
- pest or weed control at 200 ppm [1]: 0%
- pest or weed control at 200 ppm [2]: 100%
- pest or weed control at 200 ppm [3]: 26%
- pest or weed control at 200 ppm (Septoria nodorum): 100%
- pest or weed control at 200 ppm (Septoria tritici): 98%

Structure (SMILES): COC(=O)NCc1cc(-n2ccc(-c3ccc4c(c3)CCCO4)n2)ccc1F [Compound 11, methyl N-[[5-[3-(3,4-dihydro-2H-1-benzopyran-6-yl)-1H-pyrazol-1-yl]-2-fluorophenyl]methyl]carbamate]
- pest or weed control at 200 ppm [1]: 100%
- pest or weed control at 200 ppm [2]: 100%
- pest or weed control at 200 ppm [3]: 100%
- pest or weed control at 200 ppm (Septoria nodorum): 100%
- pest or weed control at 200 ppm (Septoria tritici): 100%

Structure (SMILES): COC(=O)NCc1cc(-c2ccn(-c3ccc4c(c3)CCCO4)n2)ccc1F [Compound 12, methyl N-[[5-[1-(3,4-dihydro-2H-1-benzopyran-6-yl)-1H-pyrazol-3-yl]-2-fluorophenyl]methyl]carbamate]
- pest or weed control at 200 ppm [1]: 100%
- pest or weed control at 200 ppm [2]: 100%
- pest or weed control at 200 ppm [3]: 100%
- pest or weed control at 200 ppm (Septoria nodorum): 100%
- pest or weed control at 200 ppm (Septoria tritici): 100%

Structure (SMILES): COC(=O)NCc1cc(-n2ccc(-c3ccc4c(c3)CCCO4)n2)ccc1Cl [Compound 5, methyl N-[[2-chloro-5-[3-(3,4-dihydro-2H-1-benzopyran-6-yl)-1H-pyrazol-1-yl]phenyl]methyl]carbamate]
- pest or weed control at 200 ppm [1]: 100%
- pest or weed control at 200 ppm [2]: 100%
- pest or weed control at 200 ppm [3]: 100%
- pest or weed control at 200 ppm (Septoria nodorum): 100%
- pest or weed control at 200 ppm (Septoria tritici): 100%

Structure (SMILES): COC(=O)NCc1cc(-c2ccn(-c3ccc4c(c3)CC(=O)CO4)n2)ccc1Cl [Compound 29, methyl N-[[2-chloro-5-[1-(3,4-dihydro-3-oxo-2H-1-benzopyran-6-yl)-1H-pyrazol-3-yl]phenyl]methyl]carbamate]
- pest or weed control at 200 ppm [1]: 72%
- pest or weed control at 200 ppm [2]: 99%
- pest or weed control at 200 ppm [3]: 0%
- pest or weed control at 200 ppm (Septoria nodorum): 99%
- pest or weed control at 200 ppm (Septoria tritici): 10%

Structure (SMILES): O=CNCc1cc(-c2ccn(-c3ccc4c(c3)CCCO4)n2)ccc1Cl [Compound 3, N-[[2-chloro-5-[1-(3,4-dihydro-2H-1-benzopyran-6-yl)-1H-pyrazol-3-yl]-phenyl]methyl]formamide]
- pest or weed control at 200 ppm [1]: 0%
- pest or weed control at 200 ppm [2]: 97%
- pest or weed control at 200 ppm [3]: 0%
- pest or weed control at 200 ppm (Septoria nodorum): 99%
- pest or weed control at 200 ppm (Septoria tritici): 78%

Structure (SMILES): CNC(=O)NCc1cc(-n2ccc(-c3ccc4c(c3)CCCO4)n2)ccc1Cl [Compound 9, N-[[2-chloro-5-[3-(3,4-dihydro-2H-1-benzopyran-6-yl)-1H-pyrazol-1-yl]phenyl]methyl]-N′-methylurea]
- pest or weed control at 200 ppm [1]: 0%
- pest or weed control at 200 ppm [2]: 88%
- pest or weed control at 200 ppm [3]: 8%
- pest or weed control at 200 ppm (Septoria nodorum): 100%
- pest or weed control at 200 ppm (Septoria tritici): 79%

Structure (SMILES): COC(=O)NCc1cc(-c2ccn(-c3ccc4c(c3)CCCO4)n2)ccc1C [Compound 20, methyl N-[[5-[1-(3,4-dihydro-2H-1-benzopyran-6-yl)-1H-pyrazol-3-yl]-2-methylphenyl]methyl]carbamate]
- pest or weed control at 200 ppm [1]: 99%
- pest or weed control at 200 ppm [2]: 100%
- pest or weed control at 200 ppm [3]: 100%
- pest or weed control at 200 ppm (Septoria nodorum): 100%
- pest or weed control at 200 ppm (Septoria tritici): 100%
